# “Also recorded” adds a separate entry of the source. Where no end group is shown, it is not given here. [ ]: non-standard residue; d: D form. FAM = fluorescein
# Legend:
# MMP7 [1] = biological target: T1, MMP7 (Homo sapiens, UniProt P09237); assay: In vitro recombinant protease assay (fluorescence dequenching of NP-bound substrate); type: biochemical; conditions: 100 μM final concentration
# T1 construct: purchased Enzo Life Sciences
# T1 sequence (P09237 95-267): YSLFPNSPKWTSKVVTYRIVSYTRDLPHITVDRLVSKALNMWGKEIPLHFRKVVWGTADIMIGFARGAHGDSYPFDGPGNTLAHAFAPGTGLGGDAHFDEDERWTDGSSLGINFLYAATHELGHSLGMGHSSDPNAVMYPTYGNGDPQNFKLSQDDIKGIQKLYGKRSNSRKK
# Description: (§1) C1-NP complexes sensitive to MMP cleavage were mixed with 1% (wt/vol) BSA (Sigma) and incubated with recombinant proteases (MMPs and ADAMs: Enzo Life Sciences; Clotting proteases: Haematologic Technologies) in a final volume of 100 μL in enzyme-specific buffers (MMP buffer: 50 mM Tris, 150 mM NaCl, 5 mM CaCl2, 1 μM ZnCl2, pH 7.5; Clotting proteases: PBS) in a 384-well plate for time-lapse fluorimetry to measure dequenching from homoquenched peptides at 37° C. (SpectroMax Gemini EM Microplate Reader). For the metalloproteinase, enzymes were diluted 1:10 in enzyme specific buffer, and for clotting proteases, enzymes were diluted 1:100. Cleavage heatmap was generated using GENE-E (Broad Institute). Michaelis-Menten constants were determined by assessing initial cleavage velocities at different substrate concentrations. The MMP inhibitor Marimatstat (Tocris) was added to the mixture at 100 μM final concentration. To identify the cleavage position by MMP9, C1-NPs were incubated with MMP9 overnight, and the N-terminal cleavage fragment was isolated and analyzed by MALDI. The sequence corresponding to the dominant peak was identified, and the final amino acid was in that sequence represents the P1 position (toward the N-terminal end from scissile bond). For protease resistance assays, various DMNPE: peptide ratios were reacted overnight and purified prior to being added to proteases.
# LS174T = assay: Secreted protease activity assay with quenched substrates; type: cell-based, human; conditions: for cleavage by cell-secreted proteases: fluorescently quenched versions, LS174T conditioned supernatant
# Description: Next, whether the MAPS(S1-S3) could distinguish MMP profiles of different tumor types was probed. […] Cleavage of the substrates was tested by cell-secreted proteases by employing fluorescently quenched versions and exposing them to conditioned supernatant.
# LS174T and HCT-8 cells were cultured in Eagle's Minimal Essential Medium (ATCC) supplemented with 10% FBS (Gibco) and 1% penicillin-streptomycin (CellGro). Cells were passaged when confluence reached 80%. To isolate secreted proteases, after cells were plated, cells were washed and replaced in serum-free media. Media was collected and MMP2 was measured in supernatant using a Quantikine MMP-2 kit following manufacturer protocols (R&D Systems). Secretion was normalized to number of cells and days in culture. A similar approach was used when collecting supernatants for measuring proteolysis of S1-3.
# LS174T flank tumor = conditions: LS174T tumor-bearing mice
# From the text: (§2) The in vivo activation protocol was applied to specifically activate the three sets of MAPS to profile tumor protease activity between LS174T and HCT8 tumors.
# [2] = healthy mice
# From the text: as §2
# MMP2 = biological target: T2, MMP2 (Homo sapiens, UniProt P08253); assay: In vitro recombinant protease assay with streptavidin depletion; type: biochemical; conditions: ~100 nM MMP, one hour
# T2 construct: purchased Enzo Life Sciences
# T2 sequence (P08253 110-660): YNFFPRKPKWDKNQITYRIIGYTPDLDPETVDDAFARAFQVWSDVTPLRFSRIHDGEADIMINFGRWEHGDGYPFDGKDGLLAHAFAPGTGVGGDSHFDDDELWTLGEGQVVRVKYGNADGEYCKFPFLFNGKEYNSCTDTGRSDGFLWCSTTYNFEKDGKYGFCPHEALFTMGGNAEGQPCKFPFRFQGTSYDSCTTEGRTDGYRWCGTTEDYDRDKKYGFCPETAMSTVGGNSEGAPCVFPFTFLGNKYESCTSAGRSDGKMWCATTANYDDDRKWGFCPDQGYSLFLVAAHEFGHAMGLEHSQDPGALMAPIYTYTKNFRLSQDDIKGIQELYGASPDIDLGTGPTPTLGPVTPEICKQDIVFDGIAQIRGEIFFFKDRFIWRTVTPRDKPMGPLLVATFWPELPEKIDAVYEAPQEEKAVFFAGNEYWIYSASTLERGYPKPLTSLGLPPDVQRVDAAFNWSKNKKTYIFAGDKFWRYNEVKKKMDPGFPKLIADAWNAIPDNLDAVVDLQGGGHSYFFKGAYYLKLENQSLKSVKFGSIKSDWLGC
# Description: (§3) MMPs (˜100 nM working concentration, Enzo Life Sciences) were added to substrates in 384-well plates in activity buffer (50 mM Tris, 150 mM NaCl, 5 mM CaCl2, 1 μM ZnCl2) containing 1% BSA. After one hour, uncleaved peptide was extracted using Dynabeads Strepatividin C1 (Life Technologies) as per manufacturer protocols. An excess of Dynabeads was used.
# MMP9 [3] = biological target: T3, MMP9 (Homo sapiens, UniProt P14780); assay: as above; type: biochemical; parameters: purchased Enzo Life Sciences; conditions: ~100 nM MMP, one hour
# Description: as §3
# MMP19 = biological target: T4, MMP19 (Homo sapiens, UniProt Q99542); assay: as above; type: biochemical; conditions: ~100 nM MMP, one hour
# T4 construct: purchased Enzo Life Sciences
# T4 sequence (Q99542 98-508): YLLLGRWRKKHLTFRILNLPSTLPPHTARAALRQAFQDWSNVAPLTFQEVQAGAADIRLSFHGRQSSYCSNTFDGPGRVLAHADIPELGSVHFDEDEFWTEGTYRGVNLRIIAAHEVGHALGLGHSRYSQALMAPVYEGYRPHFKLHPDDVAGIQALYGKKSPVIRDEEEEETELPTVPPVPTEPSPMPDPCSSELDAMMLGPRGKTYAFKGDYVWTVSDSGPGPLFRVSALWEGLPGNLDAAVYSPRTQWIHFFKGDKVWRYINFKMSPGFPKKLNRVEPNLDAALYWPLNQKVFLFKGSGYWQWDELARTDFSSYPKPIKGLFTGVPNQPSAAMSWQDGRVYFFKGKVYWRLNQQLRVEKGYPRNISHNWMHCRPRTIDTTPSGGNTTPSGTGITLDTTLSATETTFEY
# Description: as §3
# MMP7 [4] = biological target: T1, MMP7; assay: as above; type: biochemical; conditions: ~100 nM MMP, one hour
# Description: as §3
# LS174T cells [5] = assay: Secreted protease activity assay, conditioned media; type: cell-based, human; conditions: conditioned media from LS174T cells
# Description: LS174T and CCD-18Co (ATCC CRL-1459) cells were cultured in Eagle's Minimal Essential Medium (ATCC) supplemented with 10% FBS (Gibco) and 1% penicillin-streptomycin (CellGro). Cells were passaged when confluence reached 80%. To isolate secreted proteases, after cells were plated, cells were washed and replaced in serum-free media. Conditioned media was collected 24 h later and exposed to C1-NPs to measure fluorescence dequenching.
# plasmin = plasmin (Homo sapiens, UniProt P00747); assay: Proteolysis of alternate DMNPE-veiled substrate; type: biochemical
# From the text: To validate that the approach is generalizable to alternative substrates, the STREAMs principle was applied to a second peptide sequence. Additionally, the reporter for this additional sequence was designed to be orthogonal to the original sequence (containing a near IR dye as opposed to fluorescein). […] The ability to produce STREAMs with orthogonal reporters for multiple substrate targets, in some embodiments, enables multiplexing. Additionally, coupling this approach with alternate modes for multiplexing analyte detection, in some embodiments, enables simultaneous monitoring of several substrates.
# Fluorescein-conjugated peptides (MMP sensitive, C1: FAM-sk-PLGLEEA-GC; SEQ ID NO: 3) were synthesized. D-amino acid controls were also synthesized, where the substrate sequence was all D-stereoisomers. Peptides for in vivo studies that contain a ligand-encoded reporter for urinary clearance and subsequent ELISA detection were synthesized (V1: Biotin-PEG(5 kDa)-(KFAM)-PLGLEEA-GC; SEQ ID NO: 4). The PEG 5 kDa reporter is efficiently cleared by the renal system into the urine and can be quantified by ELISA for the conjugated ligands. The alternate substrate to show STREAMs extensibility was synthesized at a different location (sequence: eGvndneeGffsarKsRLVGEGC; SEQ ID NO: 5). VT750 (PerkinElmer) was conjugated to the free lysine prior to coupling to DMNPE. […]
# recombinant thrombin = biological target: T5, recombinant thrombin (Homo sapiens, UniProt P00734); assay: In vitro recombinant protease assay (fluorescence release); type: biochemical; conditions: veiled vs unmodified
# T5 construct: purchased Haematologic Technologies
# Description: as §1
# MMP13 = biological target: T6, MMP13 (Homo sapiens, UniProt P45452); assay: In vitro recombinant protease assay (fluorescence dequenching of NP-bound substrate); type: biochemical
# T6 construct: purchased Enzo Life Sciences
# Description: as §1
# (§4) Light activation of peptides for biochemical studies was performed using a CL-1000 UV Cross-linker (UVP, 8 mW/cm^2). Power density was measured by an OAI 306 UV power meter at 365 nm. Typical exposure time for these studies was 10-30 min. For activation in cell and animal studies, Lumen Dynamics UV system with 365 nm fiber light guide was used (OmniCure 1000, 200 mW/cm^2). For in vivo activation at the tumor site, mice were anesthetized, and the light was guided through an optical cable and placed approximately 3 cm from the flank tumor. Each flank tumor was exposed for 30 s.
# MMP9 [6] = biological target: T3, MMP9; assay: as above; type: biochemical; parameters: purchased Enzo Life Sciences
# Description: as §1, §4
# MMP9 [7] = biological target: T3, MMP9; assay: Agarose gel assay; type: biochemical; conditions: light exposure 1 min, 200 mW/cm^2
# Description: Agarose (type I-A, Sigma) was dissolved in MMP9 specific buffer (1% w/v) and heated. As the gel mixture was cooling, gel solution was transferred into a 96-well plate and mixed with STREAMs and recombinant MMP9. After gelation, the gels were activated (as above), and fluorescence dequenching through cleavage was monitored using time-lapse fluorimetry.
# LS174T cells [8] = assay: 3D collagen cancer tissue model, peptide fluorescence in supernatant; type: cell-based, human
# Description: Next, the activation of the nanosensors in a 3D ECM environment was probed. Forty LS174T cells were embedded in collagen I together with veiled or unmodified nanosensors (FIG. 4A). The constructs were monitored for protease activity by collecting the supernatant and measuring liberated peptide fragments under different conditions: L-amino acid peptide substrates were compared to D-amino acid counterparts to measure nonspecific background, and the role of DMPNE veiling was measured.
# In order to correlate regions of light-activation with protease activity measurements, light-activated rhodamine dye was included to visualize regions exposed to light (FIG. 12A). To explore the ability to monitor protease activity with spatial and temporal control, only the left half of the gels was illuminated.
# LS174T cells were encapsulated in 2.5 mg/mL collagen hydrogels (rat tail collagen type I, Corning). Imaging was done on Nikon Eclipse Ti Inverted Microscopes and Zeiss Stereoscope Discovery v20. When protease activity was measured, surrounding media was serum-free.
# [9] = increasing periods of light exposure, 8 mW/cm^2
# T3 sequence (P14780 94-707, species assumed): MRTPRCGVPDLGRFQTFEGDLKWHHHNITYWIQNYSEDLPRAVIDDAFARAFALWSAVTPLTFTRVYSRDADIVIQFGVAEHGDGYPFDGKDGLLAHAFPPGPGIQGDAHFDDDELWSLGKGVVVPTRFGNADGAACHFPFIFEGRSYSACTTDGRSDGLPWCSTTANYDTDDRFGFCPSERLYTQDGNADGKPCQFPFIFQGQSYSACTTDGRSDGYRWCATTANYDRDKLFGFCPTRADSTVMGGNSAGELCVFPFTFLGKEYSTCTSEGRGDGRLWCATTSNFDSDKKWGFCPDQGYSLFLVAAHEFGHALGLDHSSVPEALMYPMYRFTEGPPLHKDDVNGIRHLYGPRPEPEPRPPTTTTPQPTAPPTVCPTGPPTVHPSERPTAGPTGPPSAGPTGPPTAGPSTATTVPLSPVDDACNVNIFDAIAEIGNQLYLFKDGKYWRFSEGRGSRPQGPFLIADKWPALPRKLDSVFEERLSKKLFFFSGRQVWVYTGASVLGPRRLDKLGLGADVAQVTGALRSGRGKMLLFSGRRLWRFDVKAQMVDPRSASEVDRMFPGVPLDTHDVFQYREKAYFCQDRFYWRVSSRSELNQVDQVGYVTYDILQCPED
# Sequence of plasmin (P00747 581-810 limits assumed, species assumed): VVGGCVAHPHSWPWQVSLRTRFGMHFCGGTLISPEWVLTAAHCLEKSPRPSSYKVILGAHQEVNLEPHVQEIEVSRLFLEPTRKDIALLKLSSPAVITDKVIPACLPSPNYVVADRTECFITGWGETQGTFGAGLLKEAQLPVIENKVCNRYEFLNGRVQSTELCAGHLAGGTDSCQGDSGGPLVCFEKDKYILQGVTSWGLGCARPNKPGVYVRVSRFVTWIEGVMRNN
# Sequence of plasmin (P00747 97-580 partner limits assumed, species assumed): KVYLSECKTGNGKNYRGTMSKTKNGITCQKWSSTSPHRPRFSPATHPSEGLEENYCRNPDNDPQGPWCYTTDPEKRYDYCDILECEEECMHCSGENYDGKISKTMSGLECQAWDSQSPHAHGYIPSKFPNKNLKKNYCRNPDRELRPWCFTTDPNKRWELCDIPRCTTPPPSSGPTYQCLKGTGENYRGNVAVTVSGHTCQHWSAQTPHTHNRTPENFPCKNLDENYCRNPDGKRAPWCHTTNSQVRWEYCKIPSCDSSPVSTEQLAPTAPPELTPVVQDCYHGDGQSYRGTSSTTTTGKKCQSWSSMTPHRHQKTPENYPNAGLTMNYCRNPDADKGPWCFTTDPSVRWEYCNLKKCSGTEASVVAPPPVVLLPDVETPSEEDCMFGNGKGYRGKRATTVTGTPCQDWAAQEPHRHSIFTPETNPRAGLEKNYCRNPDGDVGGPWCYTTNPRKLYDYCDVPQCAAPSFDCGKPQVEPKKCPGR
molecule,measurement,setting,value
CNC(=O)[C@@H](NC(=O)[C@H](CC(C)C)[C@H](O)C(=O)NO)C(C)(C)C [Marimastat],effect of inhibitor on proteolysis of C1-NP by MMP7,MMP7 [1],inhibited; also recorded: abrogates cleavage
same,effect of inhibitor on proteolysis by LS174T secreted proteases,LS174T,abrogated
Biotin-CGPLGVRGKK(Cy7)eGvndneeGffsar-NH2 [S3],urine signal of free peptide,LS174T flank tumor,similar
same,background cleavage of free peptide,[2],lowest background cleavage
same,relative proteolysis by MMP2,MMP2,responded primarily
same,cleavage by cell-secreted proteases,LS174T,minimal cleavage
same,relative proteolysis by MMP9,MMP9 [3],responded primarily
Biotin-CGPVGLIGK(Cy7)eGvndneeGffsar-NH2 [S1],urine signal of free peptide,LS174T flank tumor,elevated
same,relative proteolysis by MMP2,MMP2,responded primarily
same,cleavage by cell-secreted proteases,LS174T,cleaved most significantly
same,relative proteolysis by MMP9,MMP9 [3],responded primarily
Biotin-CGPVPLSLVMK(Cy7)eGvndneeGffsar-NH2 [S2],urine signal of free peptide,LS174T flank tumor,similar
same,relative proteolysis by MMP19,MMP19,cleaved efficiently
same,relative proteolysis by MMP7,MMP7 [4],cleaved efficiently
same,cleavage by cell-secreted proteases,LS174T,minimal cleavage
FAM-sk-plGleea-GC ({FAM}-[dS][dK][dP][dL]G[dL][dE][dE][dA]GC; also: nanoparticle conjugated) [control NPs conjugated to D-amino acid stereoisomers],cleavage by cell-secreted proteases,LS174T cells [5],not cleaved
RLVGEGC [eGvndneeGffsarKsRLVGEGC],proteolysis by plasmin after coupling of DMNPE,plasmin,reduced proteolysis
same,proteolysis by plasmin after UV exposure,plasmin; then UV,recovered
STREAMs: C1-NPs whose peptide is veiled with photolabile DMNPE groups; unveiled by 365 nm light ({FAM}-[dS][dK]PLGLE(DMNPE)E(DMNPE)AGC(iron oxide nanoparticle); not fully specified),cleavage by thrombin,recombinant thrombin,reduced cleavage
same,proteolysis by MMP13 after exposure to 365 nm light,MMP13; [9],elevated proteolysis in a light exposure-dependent manner
same,proteolysis by MMP13 after conjugation with DMNPE,"MMP13; veiled vs unmodified, no light",marked reduction in proteolysis
same,proteolysis by MMP9 after exposure to 365 nm light,MMP9 [6]; [9],elevated proteolysis in a light exposure-dependent manner
same,stability of DMNPE conjugation (resistance to MMP9-mediated cleavage),MMP9 [6]; two weeks post-DMNPE-coupling,equal levels of protection compared to freshly conjugated samples
same,proteolysis by MMP9 after conjugation with DMNPE,"MMP9 [6]; veiled vs unmodified, no light",marked reduction in proteolysis
same,proteolytic cleavage after light exposure in agarose gel,MMP9 [7],dramatic increase in proteolytic cleavage
same,liberated peptide fluorescence in supernatant,"LS174T cells [8]; first day, no light",significantly less peptide fluorescence compared to unmodified L-amino acid sensors
same,peptide fluorescence in supernatant after light exposure,"LS174T cells [8]; left half of gels illuminated, 24 h, 30 s at 200 mW/cm^2",higher levels of peptide fluorescence

# From patent publication US11428689B2, “Methods and uses for remotely triggered protease activity measurements” (Massachusetts Institute of Technology, priority 2016, dated 2022)
